pIC50: −log10 of the molar value. In brackets after ≈: the same amount, converted by molar mass. Where only a bound is given, the exact number is not on record here.

The results in this text go back to ChEMBL document CHEMBL3808315, “Discovery of Pyrazolopyridones as a Novel Class of Gyrase B Inhibitors Using Structure Guided Design” (ACS Med Chem Lett, 2016).

Assay [1] deals with Staphylococcus aureus. Briefly: Antibacterial activity against methicillin-susceptible Staphylococcus aureus 42 incubated for 18 to 24 hrs by broth microdilution assay. It is filed as functional. On the technique in general: In broth dilution the organism is exposed to a series of concentrations in liquid medium.
For a further assay, the target named is DNA gyrase subunit B (Staphylococcus aureus, UniProt P0A0K8). Put plainly: Inhibition of Staphylococcus aureus DNA gyraseB ATPase activity using linear pBR322 DNA substrate incubated for 30 mins by fluorescence polarization assay. On the technique in general: Polarisation of emitted light reports the rotation of a fluorescent probe.
The test system of assay [2] is Staphylococcus aureus. Briefly: Antibacterial activity against methicillin-resistant Staphylococcus aureus 1118 incubated for 18 to 24 hrs by broth microdilution assay. The format is functional.
Assay [3] deals with Staphylococcus aureus. Briefly: Antibacterial activity against ciprofloxacin/methicillin-resistant Staphylococcus aureus 1721 incubated for 18 to 24 hrs by broth microdilution assay. It is filed as functional.
For another assay, the system named is Streptococcus pneumoniae. Briefly: Antibacterial activity Streptococcus pneumoniae ATCC 6303 incubated for 18 to 24 hrs by broth microdilution assay. The format is functional.
The target in assay [4] is DNA topoisomerase 4 subunit B (Staphylococcus aureus, UniProt P0C1S7). Briefly: Inhibition of Staphylococcus aureus DNA parE ATPase activity incubated for 30 mins by fluorescence polarization assay.
In another assay the test system is Enterococcus faecium. Briefly: Antibacterial activity Enterococcus faecium ATCC 6569 incubated for 18 to 24 hrs by broth microdilution assay. It is filed as functional.

As usually defined, the MIC is the lowest concentration found to suppress growth. Read a high MIC as a less susceptible organism. The pIC50 is −log10 of the IC50, conventionally taken in molar units. Read a high pIC50 as a low IC50. `CCCn1c(=O)ccc2c(-c3cnc(-c4ccc(C)nc4)s3)n[nH]c21` showed a minimal inhibitory concentration (MIC) with Staphylococcus aureus [1] of 0.25 µg/mL (≈ 0.711 µM). This compound also showed a pIC50 against DNA gyrase subunit B of more than 8.10.
`CCCn1c(=O)ccc2c(-c3cncs3)n[nH]c21` yielded an MIC against Staphylococcus aureus [1] of more than 32 µg/mL. The negative logarithm of the IC50 (pIC50) at DNA gyrase subunit B was 6.55.
In the case of `CCCn1c(=O)ccc2c(-c3cnc(-c4ccc(C(C)C)nc4)s3)n[nH]c21`, the MIC against Staphylococcus aureus [1] worked out at 1 µg/mL (≈ 2.64 µM). This compound also gave a pIC50 at DNA gyrase subunit B of 7.64.
As to `CCn1c(=O)ccc2c(-c3cnc(-c4cccnc4)s3)n[nH]c21`, the minimum inhibitory concentration (MIC) against Staphylococcus aureus [1] worked out at 2 µg/mL (≈ 6.18 µM); against Staphylococcus aureus [2], 2 µg/mL (≈ 6.18 µM); against Staphylococcus aureus [3], 4 µg/mL (≈ 12.4 µM); with Streptococcus pneumoniae, 4 µg/mL (≈ 12.4 µM); against Enterococcus faecium, 4 µg/mL (≈ 12.4 µM). For the same compound, the pIC50 against DNA gyrase subunit B was 7.70; in assay [4], 6.13.
Take `Cc1cc(=O)[nH]c2[nH]nc(-c3cnc(-c4cccnc4)s3)c12`: the pIC50 at DNA gyrase subunit B was 5.49.
With `CCCn1c(=O)ccc2c(-c3cnc(-c4ccc(CN5CCN(C)CC5)nc4)s3)n[nH]c21`, the minimum inhibitory concentration (MIC) in the assay with Staphylococcus aureus [1] turned out to be 4 µg/mL (≈ 8.9 µM). This compound gave a pIC50 against DNA gyrase subunit B of 8.00.
In the assay with Staphylococcus aureus [1], `CCCn1c(=O)ccc2c(-c3cnc(-c4ccc(CN5CCOCC5)nc4)s3)n[nH]c21` gave a minimal inhibitory concentration (MIC) of 0.5 µg/mL (≈ 1.15 µM). At DNA gyrase subunit B, this compound had a pIC50 of more than 8.10.
With `CCCn1c(=O)ccc2c(-c3cnc(-c4ccc(CN(CC)CC)nc4)s3)n[nH]c21`, the MIC with Staphylococcus aureus [1] was 4 µg/mL (≈ 9.47 µM). At DNA gyrase subunit B, this compound showed a pIC50 of 8.05.
With `CCn1c(=O)c(C(=O)NC)cc2c(-c3cnc(-c4cccnc4)s3)n[nH]c21`, the minimum inhibitory concentration (MIC) against Staphylococcus aureus [1] is more than 32 µg/mL. The pIC50 against DNA gyrase subunit B was 5.48.
In the assay with Staphylococcus aureus [1], `CCCn1c(=O)ccc2c(C3CCN(c4nc(C(=O)O)c(C)s4)CC3)n[nH]c21` showed a minimum inhibitory concentration (MIC) of more than 32 µg/mL. This compound also gave a pIC50 at DNA gyrase subunit B of 6.72.
On to `CCCn1c(=O)ccc2c(-c3nc(C(=O)N(C)C)c(-c4cccnc4)s3)n[nH]c21`, for which the minimum inhibitory concentration (MIC) against Staphylococcus aureus [1] was determined as 4 µg/mL (≈ 9.79 µM). Besides, the negative-log IC50 (pIC50) on DNA gyrase subunit B was 7.89.
In the case of `CCn1c(=O)c(C)cc2c(-c3cnc(-c4cccnc4)s3)n[nH]c21`, the MIC in the assay with Staphylococcus aureus [1] turned out to be 2 µg/mL (≈ 5.93 µM). Also, the pIC50 against DNA gyrase subunit B was 7.46.
As for `CCCn1c(=O)ccc2c(-c3cnc(-c4ccc(C(=O)NCCN5CCOCC5)nc4)s3)n[nH]c21`, the MIC against Staphylococcus aureus [1] was 2 µg/mL (≈ 4.05 µM). Besides, the negative-log IC50 (pIC50) on DNA gyrase subunit B was 7.89.
Take `CCCn1c(=O)ccc2c(-c3cnc(-c4ccc(CO)nc4)s3)n[nH]c21`: the MIC with Staphylococcus aureus [1] stood at 0.25 µg/mL (≈ 0.68 µM). Further, on DNA gyrase subunit B, the pIC50 is more than 8.10.
In turn, `CCCn1c(=O)ccc2c(-c3nc(C(=O)OC)c(-c4cccnc4)s3)n[nH]c21` had a minimal inhibitory concentration (MIC) against Staphylococcus aureus [1] of 0.25 µg/mL (≈ 0.632 µM). At DNA gyrase subunit B, this compound showed a negative logarithm of the IC50 (pIC50) of 8.22.
As for `CCCn1c(=O)ccc2c(-c3cnc(-c4ccc(C(=O)N(C)C)nc4)s3)n[nH]c21`, the MIC in the assay on Staphylococcus aureus [1] was 2 µg/mL (≈ 4.9 µM). In addition, the negative logarithm of the IC50 (pIC50) against DNA gyrase subunit B was 8.10.
Turning to `CCCn1c(=O)ccc2c(-c3cnc(-c4cccnc4)s3)n[nH]c21`, the MIC against Staphylococcus aureus [1] turned out to be 0.06 µg/mL (≈ 0.178 µM); against Staphylococcus aureus [2] it was 0.06 µg/mL (≈ 0.178 µM); against Staphylococcus aureus [3], 0.06 µg/mL (≈ 0.178 µM); with Streptococcus pneumoniae, 0.25 µg/mL (≈ 0.741 µM); with Enterococcus faecium, 0.125 µg/mL (≈ 0.37 µM). For the same compound, the negative-log IC50 (pIC50) is 8.22 on DNA gyrase subunit B and 6.74 in assay [4].
Compound `O=c1ccc2c(-c3cnc(-c4cccnc4)s3)n[nH]c2[nH]1` had an MIC in the assay with Staphylococcus aureus [1] of more than 32 µg/mL. Further, the negative-log IC50 (pIC50) against DNA gyrase subunit B was 6.57.
Compound `C=CCn1c(=O)ccc2c(-c3cnc(-c4cccnc4)s3)n[nH]c21` returned an MIC in the assay with Staphylococcus aureus [1] of 0.25 µg/mL (≈ 0.745 µM). On DNA gyrase subunit B, this compound had a negative logarithm of the IC50 (pIC50) of 8.40.
`CCCn1c(=O)ccc2c(-c3ncc(-c4cccnc4)s3)n[nH]c21` showed an MIC with Staphylococcus aureus [1] of 4 µg/mL (≈ 11.9 µM). In addition, at DNA gyrase subunit B, the negative-log IC50 (pIC50) is 8.05.
For the compound `COc1c(N2C[C@@H]3CCCN[C@@H]3C2)c(F)cc2c(=O)c(C(=O)O)cn(C3CC3)c12` [MOXIFLOXACIN], the MIC against Staphylococcus aureus [1] amounted to 0.06 µg/mL (≈ 0.149 µM).
The compound `CCCn1c(=O)ccc2c(-c3cnc(-c4ccc(C(=O)OC)nc4)s3)n[nH]c21` gave an MIC against Staphylococcus aureus [1] of 0.5 µg/mL (≈ 1.26 µM). The compound also had a pIC50 on DNA gyrase subunit B of 7.82.
Turning to `O=c1cc(-c2ccccc2)c2c(-c3cnc(-c4cccnc4)s3)n[nH]c2[nH]1`, on DNA gyrase subunit B, the pIC50 was 5.88.
With `Cn1c(=O)ccc2c(-c3cnc(-c4cccnc4)s3)n[nH]c21`, the minimal inhibitory concentration (MIC) against Staphylococcus aureus [1] is more than 32 µg/mL. At DNA gyrase subunit B, this compound showed a pIC50 of 7.29.
Turning to `CCCn1c(=O)ccc2c(-c3cnc(-c4ccc(N5CCN(C)CC5)nc4)s3)n[nH]c21`, in the assay with Staphylococcus aureus [1], the MIC amounted to 2 µg/mL (≈ 4.59 µM). On DNA gyrase subunit B, this compound showed a negative logarithm of the IC50 (pIC50) of 8.10.
For `CCn1c(=O)c(CO)cc2c(-c3cnc(-c4cccnc4)s3)n[nH]c21` the same measures were more than 32 µg/mL and 6.69.
In turn, `CCCn1c(=O)ccc2c(-c3cnc(-c4ccc(N(C)C)nc4)s3)n[nH]c21` gave an MIC with Staphylococcus aureus [1] of 0.5 µg/mL (≈ 1.31 µM). For the same compound, the pIC50 on DNA gyrase subunit B was 7.82.
Compound `O=c1ccc2c(-c3cnc(-c4cccnc4)s3)n[nH]c2n1CCO` displayed a minimal inhibitory concentration (MIC) against Staphylococcus aureus [1] of more than 32 µg/mL. In addition, the negative logarithm of the IC50 (pIC50) against DNA gyrase subunit B was 6.25.
Compound `CCCn1c(=O)ccc2c(-c3cnc(-c4ccc(C(=O)NCCN(CC)CC)nc4)s3)n[nH]c21` had an MIC against Staphylococcus aureus [1] of 1 µg/mL (≈ 2.09 µM). The compound also gave a pIC50 against DNA gyrase subunit B of more than 8.10.
